# Legend:
# [1] = system: NAD(P) dependent steroid dehydrogenase-like (NSDHL); assay: Gene expression in white adipose tissue of mice, Affymetrix MOE430A 2.0 microarray; type: in vivo
# Protocol: (§1) In a gene expression study, Tempol was administered to experimental mice at a dose of 5 g/kg of diet from 12 months through 15 months. Mice receiving the same diet without the addition of Tempol were used as a negative control. At the age of 15 months, the white adipose tissue of the experimental animals was obtained. The expression of a broad spectrum of genes in the adipose tissue was assessed using chip-based microarray technology. Specifically, in this case an Affymetrix MOE430A 2.0 array, containing 12,960 genes, was employed. Such chips are well known in the art and are widely used to assess gene expression.
# [2] = system: farnesyl diphosphate synthase (FDPS); assay: as above; type: in vivo
# Protocol: as §1
# [3] = system: lanosterol synthase (LSS); assay: as above; type: in vivo
# Protocol: as §1
# [4] = system: FDPS; assay: Protein level in patient after Tempol treatment; type: in vivo, human; settings: 1500 mg per day for 180 days
# Protocol: (§2) A 70-kilogram patient having levels of fasting plasma total cholesterol indicative of hypercholesterolemia is administered a dose of 1500 mg of Tempol per day for 180 days. This may be administered in a single dose, or may be administered as a number of smaller doses over a 24-hour period: for example, three 500-mg doses at eight-hour intervals. Following treatment, the protein level of each of LSS, FDPS, and NSDHL is reduced.
# as §2, with “at risk for developing” for “having levels of fasting plasma total cholesterol indicative of”
# [5] = system: LSS; assay: Protein level in patient after Tempol treatment; type: in vivo, human; settings: 1500 mg per day for 180 days
# Protocol: as §2
# as §2, with “at risk for developing” for “having levels of fasting plasma total cholesterol indicative of”
# [6] = system: NSDHL; assay: Protein level in patient after Tempol treatment; type: in vivo, human; settings: 1500 mg per day for 180 days
# Protocol: as §2
# as §2, with “at risk for developing” for “having levels of fasting plasma total cholesterol indicative of”
# [7] = adipose tissue of mice treated with Tempol
# [8] = Example 1: 70-kilogram patient with hypercholesterolemia
# [9] = Example 2: 70-kilogram patient at risk for hypercholesterolemia
structure (smiles),measurement,setting,value
"CC1(C)CC(O)CC(C)(C)N1[O] [Tempol, 4-hydroxy-2,2,6,6-tetramethylpiperidine-1-oxyl]",Fold change,"[1]; NSDHL expression, Tempol-treated vs control mice, white adipose tissue",−1.64
same,Mean (Tempol-treated mice),"[1]; NSDHL expression, white adipose tissue, 5 g/kg of diet from 12 through 15 months",1398
same,expression of NSHDL decreased,[1]; [7],1.64 fold
same,Fold change,"[2]; FDPS expression, Tempol-treated vs control mice, white adipose tissue",−2.08
same,Mean (Tempol-treated mice),"[2]; FDPS expression, white adipose tissue, 5 g/kg of diet from 12 through 15 months",1274
same,expression of FDPS decreased,[2]; [7],2.08 fold
same,Fold change,"[3]; LSS expression, Tempol-treated vs control mice, white adipose tissue",−2.33
same,Mean (Tempol-treated mice),"[3]; LSS expression, white adipose tissue, 5 g/kg of diet from 12 through 15 months",224
same,expression of LSS decreased,[3]; [7],2.33 fold
same,protein level of FDPS,[4]; [8],reduced
same,protein level of FDPS,[4]; [9],reduced
same,protein level of LSS,[5]; [8],reduced
same,protein level of LSS,[5]; [9],reduced
same,protein level of NSDHL,[6]; [8],reduced
same,protein level of NSDHL,[6]; [9],reduced

# Source: US20100041716A1, “[…] USE IN TREATING OR PREVENTING HYPERCHOLESTEROLEMIA” (MITOS PHARMACEUTICALS, INC., priority 2006, published 2010)
